Experimental data as given in the NIST ThermoML archive (doi:10.1016/j.jct.2015.11.008).
± gives the expanded uncertainty stated by the source.

Legend:
[1] = xn = mol fraction of the nth substance listed; settings: 298.15 K, 101 kPa, Liquid; for mass density: Vibrating tube method
[2] = 298.15 K, 101.33 kPa, Liquid; for mass density: Vibrating tube method
[3] = Concentric cylinders viscometry, x2 = 0.01995
[4] = Falling or rolling sphere viscometry, x2 = 0.01995
[5] = Concentric cylinders viscometry
[6] = Falling or rolling sphere viscometry

CCCC[N+](C)(C)C.O=S(=O)([N-]S(=O)(=O)C(F)(F)F)C(F)(F)F [butyltrimethylammonium bis(trifluoromethylsulfonyl)imide] + O
viscosity ([1]; Concentric cylinders viscometry, x2 = 6e-05): 104 ± 4.3 mPa·s | viscosity ([1]; Concentric cylinders viscometry, x2 = 0.00494): 103.5 ± 4.3 mPa·s | viscosity ([1]; Concentric cylinders viscometry, x2 = 0.01002): 101.4 ± 4.2 mPa·s | viscosity [1, 3]: 98.6 ± 4.1 mPa·s | viscosity ([1]; Concentric cylinders viscometry, x2 = 0.05012): 87.3 ± 3.6 mPa·s | viscosity ([1]; Concentric cylinders viscometry, x2 = 0.09979): 73 ± 3 mPa·s | viscosity ([1]; Falling or rolling sphere viscometry, x2 = 6e-05): 105 ± 5.1 mPa·s | viscosity ([1]; Falling or rolling sphere viscometry, x2 = 0.00494): 103.6 ± 5 mPa·s | viscosity ([1]; Falling or rolling sphere viscometry, x2 = 0.01002): 102.8 ± 5 mPa·s | viscosity [1, 4]: 99.6 ± 4.8 mPa·s | viscosity ([1]; Falling or rolling sphere viscometry, x2 = 0.05012): 88.2 ± 4.1 mPa·s | viscosity ([1]; Falling or rolling sphere viscometry, x2 = 0.09979): 73 ± 3.2 mPa·s | mass density ([1]; x2 = 6e-05): 1392.89 ± 2.1 kg/m3 | mass density ([1]; x2 = 0.00494): 1392.7 ± 2.1 kg/m3 | mass density ([1]; x2 = 0.01002): 1392.61 ± 2.1 kg/m3 | mass density ([1]; x2 = 0.01995): 1392.23 ± 2.1 kg/m3 | mass density ([1]; x2 = 0.05012): 1391.7 ± 2.1 kg/m3 | mass density ([1]; x2 = 0.09979): 1390.15 ± 2 kg/m3

CCCC[n+]1ccc(C)cc1.O=S(=O)([N-]S(=O)(=O)C(F)(F)F)C(F)(F)F
viscosity [2, 5]: 55.7 ± 2.3 mPa·s | viscosity [2, 6]: 56.1 ± 2.4 mPa·s | mass density [2]: 1412.3 ± 2.1 kg/m3

CCCC[n+]1ccn(C)c1.O=S(=O)([N-]S(=O)(=O)C(F)(F)F)C(F)(F)F
viscosity [2, 5]: 50.9 ± 2.1 mPa·s | viscosity [2, 6]: 51.5 ± 2.1 mPa·s | mass density [2]: 1436.3 ± 2.1 kg/m3

CCCC[n+]1ccn(C)c1.O=S(=O)([N-]S(=O)(=O)C(F)(F)F)C(F)(F)F + O
viscosity ([1]; Concentric cylinders viscometry, x2 = 0.00078): 50.9 ± 2.1 mPa·s | viscosity ([1]; Concentric cylinders viscometry, x2 = 0.00473): 50.6 ± 2.1 mPa·s | viscosity ([1]; Concentric cylinders viscometry, x2 = 0.0101): 49.9 ± 2 mPa·s | viscosity ([1]; Concentric cylinders viscometry, x2 = 0.01864): 49.3 ± 2 mPa·s | viscosity ([1]; Concentric cylinders viscometry, x2 = 0.05002): 45.9 ± 1.9 mPa·s | viscosity ([1]; Concentric cylinders viscometry, x2 = 0.1001): 41.7 ± 1.7 mPa·s | viscosity ([1]; Falling or rolling sphere viscometry, x2 = 0.00078): 51.5 ± 2.1 mPa·s | viscosity ([1]; Falling or rolling sphere viscometry, x2 = 0.00473): 50.8 ± 2.1 mPa·s | viscosity ([1]; Falling or rolling sphere viscometry, x2 = 0.0101): 50.5 ± 2.1 mPa·s | viscosity ([1]; Falling or rolling sphere viscometry, x2 = 0.01864): 49.4 ± 2.1 mPa·s | viscosity ([1]; Falling or rolling sphere viscometry, x2 = 0.05002): 46.8 ± 2 mPa·s | viscosity ([1]; Falling or rolling sphere viscometry, x2 = 0.1001): 42.3 ± 1.8 mPa·s | mass density ([1]; x2 = 0.00078): 1436.26 ± 2.1 kg/m3 | mass density ([1]; x2 = 0.00473): 1436.04 ± 2.1 kg/m3 | mass density ([1]; x2 = 0.0101): 1435.89 ± 2.1 kg/m3 | mass density ([1]; x2 = 0.01864): 1435.57 ± 2.1 kg/m3 | mass density ([1]; x2 = 0.05002): 1434.5 ± 2.1 kg/m3 | mass density ([1]; x2 = 0.1001): 1432.47 ± 2.1 kg/m3

CCCCn1cc[n+](C)c1.O=S(=O)([O-])C(F)(F)F [1-butyl-3-methylimidazolium trifluoromethanesulfonate]
viscosity [2, 5]: 90.7 ± 3.8 mPa·s | viscosity [2, 6]: 92.8 ± 4.3 mPa·s | mass density [2]: 1298.3 ± 2 kg/m3

CCCCn1cc[n+](C)c1.F[B-](F)(F)F [1-butyl-3-methylimidazolium tetrafluoroborate]
viscosity [2, 5]: 108 ± 4.5 mPa·s | viscosity [2, 6]: 111.9 ± 5.6 mPa·s | mass density [2]: 1201.7 ± 2 kg/m3

CCCC[N+](C)(C)C.O=S(=O)([N-]S(=O)(=O)C(F)(F)F)C(F)(F)F [butyltrimethylammonium bis(trifluoromethylsulfonyl)imide]
viscosity [2, 5]: 104.9 ± 4.4 mPa·s | viscosity [2, 6]: 104 ± 5 mPa·s | mass density [2]: 1392.9 ± 2.1 kg/m3

CCCC[n+]1ccc(C)cc1.O=S(=O)([N-]S(=O)(=O)C(F)(F)F)C(F)(F)F + O
viscosity ([1]; Concentric cylinders viscometry, x2 = 0.00167): 55.7 ± 2.3 mPa·s | viscosity ([1]; Concentric cylinders viscometry, x2 = 0.00513): 55.3 ± 2.2 mPa·s | viscosity ([1]; Concentric cylinders viscometry, x2 = 0.01053): 54.8 ± 2.2 mPa·s | viscosity ([1]; Concentric cylinders viscometry, x2 = 0.01985): 53.9 ± 2.2 mPa·s | viscosity ([1]; Concentric cylinders viscometry, x2 = 0.04978): 50.4 ± 2 mPa·s | viscosity ([1]; Concentric cylinders viscometry, x2 = 0.1002): 45.6 ± 1.9 mPa·s | viscosity ([1]; Falling or rolling sphere viscometry, x2 = 0.00167): 56.1 ± 2.4 mPa·s | viscosity ([1]; Falling or rolling sphere viscometry, x2 = 0.00513): 56 ± 2.3 mPa·s | viscosity ([1]; Falling or rolling sphere viscometry, x2 = 0.01053): 55.1 ± 2.3 mPa·s | viscosity ([1]; Falling or rolling sphere viscometry, x2 = 0.01985): 54.2 ± 2.3 mPa·s | viscosity ([1]; Falling or rolling sphere viscometry, x2 = 0.04978): 51.3 ± 2.1 mPa·s | viscosity ([1]; Falling or rolling sphere viscometry, x2 = 0.1002): 46 ± 1.9 mPa·s | mass density ([1]; x2 = 0.00167): 1412.27 ± 2.1 kg/m3 | mass density ([1]; x2 = 0.00513): 1412.02 ± 2.1 kg/m3 | mass density ([1]; x2 = 0.01053): 1411.94 ± 2.1 kg/m3 | mass density ([1]; x2 = 0.01985): 1411.55 ± 2.1 kg/m3 | mass density ([1]; x2 = 0.04978): 1410.48 ± 2.1 kg/m3 | mass density ([1]; x2 = 0.1002): 1408.83 ± 2.1 kg/m3

CCCCn1cc[n+](C)c1.F[B-](F)(F)F [1-butyl-3-methylimidazolium tetrafluoroborate] + O
viscosity ([1]; Concentric cylinders viscometry, x2 = 0.00062): 108 ± 4.5 mPa·s | viscosity ([1]; Concentric cylinders viscometry, x2 = 0.005): 105.9 ± 4.4 mPa·s | viscosity ([1]; Concentric cylinders viscometry, x2 = 0.00993): 103.7 ± 4.3 mPa·s | viscosity [1, 3]: 99.5 ± 4.1 mPa·s | viscosity ([1]; Concentric cylinders viscometry, x2 = 0.04989): 87.9 ± 3.6 mPa·s | viscosity ([1]; Concentric cylinders viscometry, x2 = 0.09965): 71.4 ± 2.9 mPa·s | viscosity ([1]; Falling or rolling sphere viscometry, x2 = 0.00062): 111.9 ± 5.6 mPa·s | viscosity ([1]; Falling or rolling sphere viscometry, x2 = 0.005): 107.4 ± 5.3 mPa·s | viscosity ([1]; Falling or rolling sphere viscometry, x2 = 0.00993): 106.5 ± 5.2 mPa·s | viscosity [1, 4]: 99.9 ± 4.8 mPa·s | viscosity ([1]; Falling or rolling sphere viscometry, x2 = 0.04989): 89.6 ± 4.1 mPa·s | viscosity ([1]; Falling or rolling sphere viscometry, x2 = 0.09965): 72.5 ± 3.2 mPa·s | mass density ([1]; x2 = 0.00062): 1201.69 ± 2 kg/m3 | mass density ([1]; x2 = 0.005): 1201.55 ± 2 kg/m3 | mass density ([1]; x2 = 0.00993): 1201.36 ± 2 kg/m3 | mass density ([1]; x2 = 0.01995): 1201.1 ± 2 kg/m3 | mass density ([1]; x2 = 0.04989): 1200.18 ± 2 kg/m3 | mass density ([1]; x2 = 0.09965): 1198.59 ± 2 kg/m3

CCCCn1cc[n+](C)c1.O=S(=O)([O-])C(F)(F)F [1-butyl-3-methylimidazolium trifluoromethanesulfonate] + O
viscosity ([1]; Concentric cylinders viscometry, x2 = 0.00022): 90.7 ± 3.8 mPa·s | viscosity ([1]; Concentric cylinders viscometry, x2 = 0.00612): 89.2 ± 3.7 mPa·s | viscosity ([1]; Concentric cylinders viscometry, x2 = 0.01): 88.2 ± 3.6 mPa·s | viscosity ([1]; Concentric cylinders viscometry, x2 = 0.01738): 86.2 ± 3.6 mPa·s | viscosity ([1]; Concentric cylinders viscometry, x2 = 0.04999): 79.7 ± 3.3 mPa·s | viscosity ([1]; Concentric cylinders viscometry, x2 = 0.1003): 70.4 ± 2.9 mPa·s | viscosity ([1]; Falling or rolling sphere viscometry, x2 = 0.00022): 92.7 ± 4.3 mPa·s | viscosity ([1]; Falling or rolling sphere viscometry, x2 = 0.00612): 91.3 ± 4.2 mPa·s | viscosity ([1]; Falling or rolling sphere viscometry, x2 = 0.01): 89.6 ± 4.1 mPa·s | viscosity ([1]; Falling or rolling sphere viscometry, x2 = 0.01738): 87.9 ± 4 mPa·s | viscosity ([1]; Falling or rolling sphere viscometry, x2 = 0.04999): 81.3 ± 3.7 mPa·s | viscosity ([1]; Falling or rolling sphere viscometry, x2 = 0.1003): 70.6 ± 3.1 mPa·s | mass density ([1]; x2 = 0.00022): 1298.32 ± 2 kg/m3 | mass density ([1]; x2 = 0.00612): 1298.12 ± 2 kg/m3 | mass density ([1]; x2 = 0.01): 1297.98 ± 2 kg/m3 | mass density ([1]; x2 = 0.01738): 1297.72 ± 2 kg/m3 | mass density ([1]; x2 = 0.04999): 1296.84 ± 2 kg/m3 | mass density ([1]; x2 = 0.1003): 1295.4 ± 2 kg/m3
